Test results as given in BindingDB's records for doi:10.7270/Q2SX6BN0 (The Scripps Research Institute Molecular Screening Center, 2010).

Molecular target: T1, NADPH oxidase 1 (Homo sapiens, UniProt Q9Y5S8)
T1 sequence (Q9Y5S8 whole entry): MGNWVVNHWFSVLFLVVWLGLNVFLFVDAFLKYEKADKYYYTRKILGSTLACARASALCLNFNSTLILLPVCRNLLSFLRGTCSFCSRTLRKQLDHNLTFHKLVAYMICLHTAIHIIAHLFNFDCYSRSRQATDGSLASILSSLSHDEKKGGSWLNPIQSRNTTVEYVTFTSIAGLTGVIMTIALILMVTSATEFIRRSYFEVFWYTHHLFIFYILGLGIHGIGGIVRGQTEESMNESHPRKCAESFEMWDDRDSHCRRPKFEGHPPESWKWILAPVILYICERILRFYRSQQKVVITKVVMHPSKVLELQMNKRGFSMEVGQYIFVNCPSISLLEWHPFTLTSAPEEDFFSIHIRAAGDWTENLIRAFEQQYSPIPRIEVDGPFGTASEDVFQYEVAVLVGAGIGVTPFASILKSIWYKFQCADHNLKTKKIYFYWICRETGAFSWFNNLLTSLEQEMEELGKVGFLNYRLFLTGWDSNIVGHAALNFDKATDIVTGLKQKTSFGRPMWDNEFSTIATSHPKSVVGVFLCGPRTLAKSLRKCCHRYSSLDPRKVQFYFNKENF
Assay: HEK293 ROS counter-screen potency – cell-based, IC50, set 2, counter-screen for NOX1 inhibitor project, late-stage follow-up (AID 435002)

SMILES	IC50 [µM]
Oc1c(Br)cc(CN=Nc2c(Cl)cncc2Cl)cc1Br [4-[[2-[3,5-bis(chloranyl)pyridin-4-yl]hydrazinyl]methylidene]-2,6-bis(bromanyl)cyclohexa-2,5-dien-1-one]	10
CN(C)c1ccc(CN=Nc2c(Cl)cncc2Cl)cc1	4
